Where two headings read alike, the source gives them in different places.
Legend:
[1] = molecular target: human Fatty Acid Amide Hydrolase (FAAH) (Homo sapiens (Human), UniProt O00519); assay: biochemical; conditions: for inhibition at 0.1 µM: read-out: hFAAH % inhibition at 100 nM, 100 nM (tier I)
[2] = molecular target: rat Fatty Acid Amide Hydrolase (FAAH) (Rattus norvegicus (Rat), UniProt P97612); assay: FAAH in vitro fluorescence assay (AAMCA hydrolysis), rat enzyme; format: biochemical; conditions: for inhibition at 0.1 µM: read-out: rFAAH % inhibition at 100 nM
Protocol: Material and Reagents: All reagents were purchased from Sigma-Aldrich unless specified. […] Chaperone protein groEL-groES in pGRO7 plasmid (Takara Bio Inc, Japan) was co-expressed with Fatty Acid Amide Hydrolase (FAAH) to improve solubility of the protein expressed in E coli. […] Briefly, the bacterial cultures in Luria Broth (2 L) were induced with arabinose (2 mM) and Isopropyl (β-D-1-thiogalactopyranoside, IPTG (1 mM), for 20 h at room temperature. The cultures were centrifuged at 1200×g for 10 min and the cell pellet was resuspended in 100 mL buffer containing of 20 mM NaPi (pH 7.4), 100 mM NaCl, Benzonase (500u), Aprotinin (1 μg/mL) and Leupeptin (1 μg/mL). Cells were lyzed by sonication (Amp 20%, Pulse 15 s×15, on ice) and the cell debris removed by centrifugation at 5000×g for 20 min. The supernatant was enriched via ultracentrifugation at 100,000×g for 1 h and the cell pellet was resuspended in 16 mL buffer containing 20 mM NaPi (pH 7.8), 500 mM NaCl, 1% Triton X-100. The resuspended cell extract was subjected to ultra-centrifugation at 100,000×g for 1 h and the enriched supernatant was used in the in vitro assay. All protein extraction steps were carried out on ice or at 4° C.
The assay was carried out in 200 μL volume in a 96-well black polystyrene plate (Greiner Bio-one, Germany). Each reaction consisted of human Fatty Acid Amide Hydrolase (FAAH) protein and 10 μM AAMCA in assay buffer containing 50 mM HEPES, 1 mM EDTA and 0.1% BSA, pH 7.4. The reaction was incubated with 2 μL of varying concentrations of inhibitor in DMSO (final concentration of DMSO 1%) with shaking for 1 min and monitored for increase in fluorescence in kinetic mode for 50 min. […] Rate of reaction as a function of the concentration of the inhibitor was used to determine the IC50 of the inhibitors. Data was analyzed using GraphPad Prism 5 (GraphPad Software Inc., San Diego, Calif.). The activity of the compounds for rat Fatty Acid Amide Hydrolase (FAAH) was evaluated as described above with rat Fatty Acid Amide Hydrolase (FAAH) protein and 10 μM AAMCA substrate.

[3] = human FAAH, read-out: hFAAH IC50

Sequence of rat Fatty Acid Amide Hydrolase (FAAH) (P97612 30-579): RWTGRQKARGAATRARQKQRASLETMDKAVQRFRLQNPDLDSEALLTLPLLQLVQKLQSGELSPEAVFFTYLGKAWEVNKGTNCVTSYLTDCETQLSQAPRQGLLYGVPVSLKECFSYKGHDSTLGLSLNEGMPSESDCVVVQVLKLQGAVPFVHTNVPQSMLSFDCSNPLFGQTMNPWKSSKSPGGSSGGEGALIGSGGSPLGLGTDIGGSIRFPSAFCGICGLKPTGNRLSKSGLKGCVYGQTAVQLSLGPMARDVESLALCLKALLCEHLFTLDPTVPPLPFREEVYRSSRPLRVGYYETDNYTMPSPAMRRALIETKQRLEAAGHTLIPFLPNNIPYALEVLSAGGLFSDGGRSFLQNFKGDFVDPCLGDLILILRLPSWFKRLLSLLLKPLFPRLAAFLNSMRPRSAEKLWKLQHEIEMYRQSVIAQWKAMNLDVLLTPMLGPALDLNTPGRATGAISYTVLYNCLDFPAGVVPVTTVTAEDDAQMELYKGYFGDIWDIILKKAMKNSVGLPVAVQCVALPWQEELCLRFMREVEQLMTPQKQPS
Sequence of human Fatty Acid Amide Hydrolase (FAAH) (O00519 30-579): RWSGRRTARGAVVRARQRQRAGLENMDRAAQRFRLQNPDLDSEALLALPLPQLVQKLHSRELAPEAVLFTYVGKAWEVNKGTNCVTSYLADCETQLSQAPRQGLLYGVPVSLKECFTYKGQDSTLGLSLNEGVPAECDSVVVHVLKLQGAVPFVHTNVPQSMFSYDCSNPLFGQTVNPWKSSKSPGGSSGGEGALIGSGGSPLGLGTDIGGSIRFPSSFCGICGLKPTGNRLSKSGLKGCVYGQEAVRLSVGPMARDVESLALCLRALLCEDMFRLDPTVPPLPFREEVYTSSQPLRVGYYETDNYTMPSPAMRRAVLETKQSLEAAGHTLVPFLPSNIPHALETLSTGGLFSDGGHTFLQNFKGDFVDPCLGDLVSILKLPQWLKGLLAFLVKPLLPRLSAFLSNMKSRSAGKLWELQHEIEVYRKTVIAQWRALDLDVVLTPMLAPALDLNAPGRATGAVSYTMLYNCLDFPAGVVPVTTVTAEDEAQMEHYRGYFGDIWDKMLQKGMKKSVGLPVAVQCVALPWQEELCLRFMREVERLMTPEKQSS

SMILES | IC50 [1, 3] [nM] | IC50 ([2]; rat FAAH, read-out: rFAAH IC50) [nM] | also measured
Cc1n[nH]c(C(C)C)c1C(=O)NC1CCC(=Cc2cccc(Oc3ccc(C(F)(F)F)cn3)c2)CC1 (stereo not drawn) [Example 2.A-38, 5-Isopropyl-3-methyl-N-[4-[[3-[[5-(trifluoromethyl)-2-pyridyl]oxy]phenyl]methylene]cyclohexyl]-1H-pyrazole-4-carboxamide] | – | – | inhibition at 0.1 µM ([1]; human FAAH): 20%; inhibition at 0.1 µM ([2]; rat FAAH, 100 nM (tier I)): 54%
O=C(NC1CCC(=Cc2cccc(Oc3ccc(C(F)(F)F)cn3)c2)CC1)c1cn[nH]n1 (stereo not drawn) [Example 2.A-19, N-[4-[[3-[[5-(Trifluoromethyl)-2-pyridyl]oxy]phenyl]methylene]cyclohexyl]-2H-triazole-4-carboxamide] | 6 | 145 | –
O=C(NC1CCC(=Cc2cccc(Oc3ccc(C(F)(F)F)cn3)c2)CC1)c1ccc(-c2nnn[nH]2)nc1 (stereo not drawn) [Example 11.1, 6-(1H-Tetrazol-5-yl)-N-[4-[[3-[[5-(trifluoromethyl)-2-pyridyl]oxy]-phenyl]methylene]cyclohexyl]pyridine-3-carboxamide] | – | – | IC50 ([1]; read-out: hFAAH IC50): 12 nM; inhibition at 0.1 µM ([2]; rat FAAH, 100 nM (tier I)): 50%
Nc1ccc(C(=O)NC2CCC(=Cc3cccc(Oc4ccc(C(F)(F)F)cn4)c3)CC2)cn1 (single isomer, unassigned; (-)) [Example 20.A-4, (−)-6-Amino-N-[4-[[3-[[5-(trifluoromethyl)-2-pyridyl]oxy]phenyl]methylene]cyclohexyl]pyridine-3-carboxamide] | – | 11 | IC50 ([1]; read-out: hFAAH IC50): 1 nM
CCc1ccc(C(=O)NC2CCC(=Cc3cccc(Oc4ccc(C(F)(F)F)cn4)c3)CC2)cn1 (stereo not drawn) [Example 2.A-43, 6-Ethyl-N-[4-[[3-[[5-(trifluoromethyl)-2-pyridyl]oxy]phenyl]methylene]cyclohexyl]pyridine-3-carboxamide] | 4 | 18 | –
CC(C)c1[nH]ncc1C(=O)NC1CCC(=Cc2cccc(Oc3ccc(C(F)(F)F)cn3)c2)CC1 (stereo not drawn) [Example 2.A-39, 5-Isopropyl-N-[4-[[3-[[5-(trifluoromethyl)-2-pyridyl]oxy]phenyl]methylene]cyclohexyl]-1H-pyrazole-4-carboxamide] | 63 | 30 | –
CCN(C)c1ccc(C(=O)NC2CCC(=Cc3cccc(Oc4ccc(C(F)(F)F)cn4)c3)CC2)cn1 (stereo not drawn) [Example 5.A-7, 6-[Ethyl(methyl)amino]-N-[4-[[3-[[5-(trifluoromethyl)-2-pyridyl]oxy]phenyl]methylene]cyclohexyl]pyridine-3-carboxamide] | 128 | 15 | –
O=C(NC1CCC(=Cc2cccc(Oc3ccc(C(F)(F)F)cn3)c2)CC1)c1ccc(-n2nccn2)nc1 (stereo not drawn) [Example 2.B-15, 6-(Triazol-2-yl)-N-[4-[[3-[[5-(trifluoromethyl)-2-pyridyl]oxy]phenyl]methylene]cyclohexyl]pyridine-3-carboxamide] | 3 | 9 | –
O=C(NC1CCC(=Cc2cccc(Oc3ccc(C(F)(F)F)cn3)c2)CC1)c1cncc(F)c1 (stereo not drawn) [Example 2.A-15, 5-Fluoro-N-[4-[[3-[[5-(trifluoromethyl)-2-pyridyl]oxy]phenyl]methylene]cyclohexyl]pyridine-3-carboxamide] | – | – | IC50 ([1]; hFAAH IC50): 5 nM; IC50 [2]: 188 nM
O=C(NC1CCC(=Cc2cccc(Oc3ccc(C(F)(F)F)cn3)c2)CC1)c1cc[nH]n1 (stereo not drawn) [Example 2.A-1, N-[4-[[3-[[5-(Trifluoromethyl)-2-pyridyl]oxy]phenyl]methylene]cyclohexyl]-1H-pyrazole-3-carboxamide] | 10 | 418 | –
Cc1ncccc1C(=O)NC1CCC(=Cc2cccc(Oc3ccc(C(F)(F)F)cn3)c2)CC1 (stereo not drawn) [Example 2.A-28, 2-Methyl-N-[4-[[3-[[5-(trifluoromethyl)-2-pyridyl]oxy]phenyl]methylene]cyclohexyl]pyridine-3-carboxamide] | 31 | – | rFAAH % inhibition at 100 nM ([2]; rat FAAH, 100 nM (tier I)): No inhibition at 100 nM
Nc1ccc(C(=O)NC2CCC(=Cc3cccc(Oc4ccc(C(F)(F)F)c(C5CC5)n4)c3)CC2)cn1 (stereo not drawn) [Example 2.E-19, 6-Amino-N-[4-[[3-[[6-cyclopropyl-5-(trifluoromethyl)-2-pyridyl]oxy]phenyl]methylene]cyclohexyl]pyridine-3-carboxamide] | – | – | inhibition at 0.1 µM ([1]; human FAAH): 40%; inhibition at 0.1 µM ([2]; rat FAAH, 100 nM (tier I)): 40%
Nc1ccc(C(=O)NC2CCC(=Cc3cccc(Oc4ccc(C(F)(F)F)c(Cl)n4)c3)CC2)cn1 (stereo not drawn) [Example 2.E-20, 6-Amino-N-[4-[[3-[[6-chloro-5-(trifluoromethyl)-2-pyridyl]oxy]phenyl]methylene]cyclohexyl]pyridine-3-carboxamide] | 3 | 71 | –
CNc1ccc(C(=O)NC2CCC(=Cc3cccc(Oc4ccc(C(F)(F)F)cn4)c3)CC2)cn1 (stereo not drawn) [Example 5.A-1, 6-(Methylamino)-N-[4-[[3-[[5-(trifluoromethyl)-2-pyridyl]oxy]phenyl]methylene]cyclohexyl]pyridine-3-carboxamide] | – | 11 | IC50 ([1]; read-out: hFAAH IC50): 4 nM
Cc1[nH]ncc1C(=O)NC1CCC(=Cc2cccc(Oc3ccc(C(F)(F)F)cn3)c2)CC1 (stereo not drawn) [Example 2.A-23, 5-Methyl-N-[4-[[3-[[5-(trifluoromethyl)-2-pyridyl]oxy]phenyl]methylene]cyclohexyl]-1H-pyrazole-4-carboxamide] | 5 | 29 | –
N#Cc1nc(Oc2cccc(C=C3CCC(NC(=O)c4ccc(N)nc4)CC3)c2)ccc1C(F)(F)F (stereo not drawn) [Example 2.E-28, 6-Amino-N-[4-[[3-[[6-cyano-5-(trifluoromethyl)-2-pyridyl]oxy]phenyl]methylene]cyclohexyl]pyridine-3-carboxamide] | 6 | 75 | –
Cc1cc(C(=O)NC2CCC(=Cc3cccc(Oc4ccc(C(F)(F)F)c(C)n4)c3)CC2)cnc1N (stereo not drawn) [Example 2.E-23, 6-Amino-5-methyl-N-[4-[[3-[[6-methyl-5-(trifluoromethyl)-2-pyridyl]oxy]phenyl]methylene]cyclohexyl]pyridine-3-carboxamide] | 12 | 65 | –
CCc1nc(Oc2cccc(C=C3CCC(NC(=O)c4ccc(N)nc4)CC3)c2)ccc1C(F)(F)F (stereo not drawn) [Example 2.E-24, 6-Amino-N-[4-[[3-[[6-ethyl-5-(trifluoromethyl)-2-pyridyl]oxy]phenyl]methylene]cyclohexyl]pyridine-3-carboxamide] | 34 | – | inhibition at 0.1 µM ([2]; rat FAAH, 100 nM (tier I)): 47%
N#Cc1ccc(C(=O)NC2CCC(=Cc3cccc(Oc4ccc(C(F)(F)F)cn4)c3)CC2)cn1 (stereo not drawn) [Example 2.A-27, 6-Cyano-N-[4-[[3-[[5-(trifluoromethyl)-2-pyridyl]oxy]phenyl]methylene]cyclohexyl]pyridine-3-carboxamide] | 55 | – | inhibition at 0.1 µM ([2]; rat FAAH, 100 nM (tier I)): 27%
O=C(NC1CCC(=Cc2cccc(Oc3ccc(C(F)(F)F)cn3)c2)CC1)c1ccccn1 (stereo not drawn) [Example 2.A-4, N-[4-[[3-[[5-(Trifluoromethyl)-2-pyridyl]oxy]phenyl]methylene]cyclohexyl]pyridine-2-carboxamide] | 508 | – | inhibition at 30 µM ([2]; read-out: rFAAH % inhibition at 30 uM, rat FAAH, 30 uM): 70%
CN(C)c1ccc(C(=O)NC2CCC(=Cc3cccc(Oc4ccc(C(F)(F)F)cn4)c3)CC2)cn1 (stereo not drawn) [Example 2.A-24, 6-(Dimethylamino)-N-[4-[[3-[[5-(trifluoromethyl)-2-pyridyl]oxy]phenyl]methylene]cyclohexyl]pyridine-3-carboxamide] | – | – | IC50 ([1]; read-out: hFAAH IC50): 9 nM; inhibition at 0.1 µM ([2]; rat FAAH, 100 nM (tier I)): 31%

— patent US9682953B2, “Amide compounds, compositions and applications thereof” (Advinus Therapeutics Limited, priority 2011, dated 2017)
